Measured values taken from PubChem BioAssay (NCI).
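Step 1: Grow cells in 96-well plates. Step 2: Expose to compound for 48 hours at 5 concentrations. Step 3: Interpolate endpoints linearly; if unreached, use highest concentration. At the TGI there is no net growth.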

Key:
Assay in all cases: growth of human tumour cells (NCI), 48 h
[1] = system: A549 NSCLC
[2] = system: DU-145 prostate
[3] = system: HS 578T breast
[4] = system: KM12 colon
[5] = system: OVCAR-3 ovarian
[6] = system: OVCAR-4 ovarian
[7] = system: OVCAR-8 ovarian
[8] = system: PC-3 prostate
[9] = system: SK-OV-3 ovarian
[10] = system: NCI-H23 lung

Row | Structure (SMILES) | TGI [1] [µM] | TGI [2] [µM] | TGI [3] [µM] | TGI [4] [µM] | TGI [5] [µM] | TGI [6] [µM] | TGI [7] [µM] | TGI [8] [µM] | TGI [9] [µM] | TGI [10] [µM]
1 | N#CCCN(CCC#N)c1ccc(/C=C2\N=C(c3ccccc3)N(c3ccc(F)cc3)C2=O)cc1 | > 100 | > 100 | > 100 | > 100 | > 100 | > 100 | > 100 | > 100 | > 100 | 
2 | COc1cc2c(c3c1c(=O)c1ccccc1n3C)C=CC1(CCCC1)O2 | 47.1 | 31.6 | 9.75 | 25.3 | 38.1 | 25.8 | 57.8 |  | 38.4 | 28.6
3 | C1=C(c2ccccc2)SC(N2CCCCC2)S1 (stereo not given) |  |  |  | > 100 | > 100 | > 100 |  |  | > 100 | > 100
4 | COc1cc(/C=C2\C(=O)N(c3cccc([N+](=O)[O-])c3)C(c3ccccc3)S2(=O)=O)cc(OC)c1OC (stereo not given) | > 100 | > 100 |  | > 100 | > 100 | > 100 | > 100 | > 100 | > 100 | > 100
5 | Cn1nc2ccc([N+](=O)[O-])c(Cn3nnc4ccccc43)c2n1 | > 100 | > 100 | > 100 | > 100 | > 100 | > 100 | > 100 |  | > 100 | > 100
6 | O=C1[C@H](O)[C@@H]2C(O)O[C@H]3[C@@H]2N1C[C@H]3[Si](c1ccccc1)(c1ccccc1)c1ccccc1 (stereo not given in full) | > 100 | > 100 |  | > 100 | > 100 | > 100 | > 100 | > 100 | > 100 | > 100
7 | CCOC(=O)C(C#N)(Cc1c[nH]c2ccccc12)NC(C)=O (stereo not given) |  |  |  | > 100 | > 100 | > 100 | > 100 |  | > 100 | > 100
8 | COC(=O)[C@H]1C=NN[C@@H]1C(=O)N1[C@H]2CC3CC[C@@]2(CS1(=O)=O)C3(C)C | > 100 | > 100 | > 100 | > 100 |  | > 100 | > 100 | > 100 | > 100 | > 100
9 | CCN(CCCOc1ccccc1)CCN(CC)CCCOc1ccccc1 | 28.7 | 23.9 | 30.4 | 27.8 | 31.9 | 37.5 | 38 | 5.14 |  | 40.6
10 | N=C1C(=N)c2ccccc2-c2ccccc21.[Cl-].[Ru+2].c1ccc(-c2ccccn2)nc1.c1ccc(-c2ccccn2)nc1 | > 100 |  |  | > 100 | > 100 | > 100 | > 100 |  | > 100 | > 100
11 | CC1=NNC(=O)C1C1C(=O)NN=C(c2c[nH]c3ccccc23)C1Br (stereo not given) | > 100 | > 100 | > 100 | 34.4 | > 100 |  | > 100 | > 100 | > 100 | > 100
12 | CCNCCNC(=O)c1ccc(I)cc1 | > 100 |  | > 100 | > 100 | > 100 | > 100 | > 100 | > 100 | > 100 | > 100
13 | Cc1ccc2c(c1)-c1nc(N)c(C#N)c(-c3ccc(Cl)cc3)c1CCS2(=O)=O | > 100 | > 100 | > 100 | > 100 |  | > 100 | > 100 | > 100 |  | > 100
14 | CCOC(=O)c1c(C)n(Cc2ccc(Cl)cc2Cl)c2c1cc(O)c1[nH]c3c(c12)CCCC3 | > 100 | > 100 |  | 67.2 | > 100 | 41.7 | 53.5 | 40.9 | > 100 | 77.6
15 | C[C@@]1(O)C2CC3CC1(c1ccccc1)CC(/C3=N/O)/C2=N\O (stereo not given in full) | > 100 | > 100 |  | > 100 | > 100 | > 100 | > 100 | > 100 | > 100 | > 100
16 | NC(=O)Nc1c(Cl)cc(S(N)(=O)=O)cc1Cl | > 100 | > 100 | > 100 | > 100 | > 100 | > 100 | > 100 |  | > 100 | > 100
17 | COc1ccc(N2CC(=O)N(C(=O)COc3ccc(OCC(=O)N4C(=O)CN(c5ccc(OC)cc5)C4=S)cc3)C2=S)cc1 | > 100 | > 100 |  | > 100 |  | > 100 |  | > 100 | > 100 | > 100
18 | CCc1n[nH]c(=O)n1CCCCCCCCCCCCn1c(CC)n[nH]c1=O | > 100 |  | > 100 | > 100 | > 100 | > 100 | > 100 | > 100 | > 100 | 94.4
